Experimental data: publication PMC6615261, “Repurposing Azithromycin and Rifampicin Against Gram-Negative Pathogens by Combination With Peptidomimetics” (Frontiers in Cellular and Infection Microbiology, 2019)
Read-outs that look alike come from different tables or passages of the source.

Experiments:
E. coli ST131 [1] = assay: MIC by broth microdilution; format: cell-based, Escherichia coli; settings: peptidomimetic alone
Experimental: (§1) Minimal inhibitory concentrations (MICs) of peptidomimetics, antibiotics and their combinations were determined by broth microdilution according to the Clinical Laboratory Standards Institute performance standards (Clinical and Laboratory Standards Institute, [2013]). […] Since rifampicin and azithromycin mainly are used to treat infections with Gram-positive pathogens only CLSI clinical breakpoints were available for such bacteria. […] Potentiation of additional antibiotics by peptidomimetics was determined by using commercial 96-well plates containing varied concentrations of standard antibiotics (COMPAN1F; Trek Diagnostic Systems Inc.). The peptidomimetics were added immediately prior to inoculation with pathogen, and then MICs were determined as above. The MICs of peptidomimetic/antibiotic combinations were determined according to the method above, and the concentration ratios were selected based upon checkerboard results with 2:1 and 1:4 ratio of peptidomimetic with rifampicin or azithromycin, respectively. Minimal bactericidal concentrations (MBCs) were determined by using growth-curve assay plates. MIC plates were prepared as above, and then the plates were incubated at 37°C with continuous shaking. Growth was recorded at 10 min intervals as optical density (OD) at 600 nm during 24 h. At 24 h, for wells without growth, a sample was diluted 10-fold in sterile saline (0.9% sodium chloride) and plated onto MHA, following CLSI guidelines (Clinical and Laboratory Standards Institute, [1999]).

P. aeruginosa ATCC 27853 [2] = assay: MIC by broth microdilution; format: cell-based, Pseudomonas aeruginosa; settings: peptidomimetic alone
Experimental: as §1

NIH 3T3 and HepG2 cells = assay: Effect on viability of mammalian cells (both cell lines); format: cell-based, mouse and human
Experimental: (§2) NIH 3T3 and HepG2 cells (both from ATCC, Manassas, VA, USA) were cultured in flat-bottomed 96-well MicroWell™ plates (NUNC, Roskilde, Denmark) at seeding densities of ~23,000 and ~22,000 cells/well, respectively, and then cultured for 22–24 h under standard culturing conditions (37°C, 5% CO2, humidified air) to reach 80–90% confluence. NIH 3T3 were cultured in Dulbecco's modified Eagle's medium (DMEM) supplemented with 10% (v/v) newborn-calf serum (NCS) (Gibco, Paisly, UK), while HepG2 were cultured in Eagle's minimum essential medium (EMEM) supplemented with 10% (v/v) fetal bovine serum (FBS, Gibco, Paisly, UK), sodium pyruvate (1 mM), and non-essential amino acids (1%, v/v). Both culturing media were further supplemented with penicillin (100 U/mL), streptomycin (100 μg/mL), and L-glutamine (2 mM).
(§3) Effect on cell viability was determined in NIH 3T3 fibroblasts and HepG2 hepatocytes by using the MTS/PMS assay measuring metabolic activity. Briefly, the adhered cells were washed with 37°C Hanks' balanced salt solution (HBSS from Sigma-Aldrich, St. Louis, MO, USA), containing 10 mM HEPES (AppliChem, Darmstadt, Germany), and adjusted to pH 7.4, and were then exposed for 1 h to 100 μL of test compound(s) dissolved in the appropriate culturing medium without serum for each cell line. After exposure the cells were washed with HBSS containing 10 mM HEPES (pH 7.4) and 100 μL of an MTS/PMS solution, consisting of 240 μg/mL MTS (Promega, Madison, WI, USA) and 2.4 μg/mL PMS (SigmaAldrich, Buchs, Switzerland) in HBSS, was added to the cells, which then were incubated for 1 h at 37°C with horizontal shaking under light protection. Absorbance was measured at 492 nm by using a POLARstar OPTIMA plate reader (BMG Labtech, Offenburg, Germany). The relative viability was calculated according to Equation (1) with absorbance values obtained after incubation of cells with test compound; incubation with SDS (0.2%, w/v in medium) defined 100% cell death (Abspos), while the absorbance of cells incubated with medium defined 0% cell death (Absneg).
(§4) (1) Relative viability(%)=(Abssample-Abspos)/(Absneg-Abspos)×100%
(§5) EC50 values were calculated by using GraphPad Prism 7 (GraphPad Software, La Jolla, CA, USA) via fitting of the relative cell viability to the concentration of the test compound by using Equation (2):
(§6) (2) Relative viability(%)= Top-Bottom/1+10^(LogIC50-Log[peptidomimetic]) ×Hill slope
With top and bottom representing the mean highest and lowest observed values, respectively. The Hill slope represents a factor for the steepness of the linear part of the curve. […] The selectivity index was calculated as the average effect on cell viability (EC50 values for HepG2 and NIH 3T3 cells) divided by the MIC.

MDR E. coli ST131 = assay: Screening of peptidomimetic-antibiotic combinations (growth / growth inhibition); format: cell-based, Escherichia coli; parameters: key to Growth in combination with RIF / Growth in combination with AZM: Growth (+); growth inhibition (–)
Experimental: as §1

K. pneumoniae ST258 [3] = assay: MIC by broth microdilution; format: cell-based, Klebsiella pneumoniae
Experimental: as §1

E. coli ST131 [4] = tested on: E. coli ST131
Experimental: (§7) The potential synergistic effects in peptidomimetic-antibiotic combinations were assessed by using a two-dimensional checkerboard assay (Garcia, [2010]). Briefly, twofold dilutions of peptide and antibiotic were prepared in MBH II media along the X- and Y-axis, respectively, in 96-well plates. The inoculum was added to the plates, and subsequently these were incubated for 18–20 h. All steps for inoculum preparation and broth microdilution were in accordance with the CLSI guidelines (Clinical and Laboratory Standards Institute, [2013]). The fractional inhibitory concentration index (FICI) was calculated as [MICA(A+B)/MICA(alone)] + [MICB(A+B)/MICB(alone)], where MICA(A+B) represents the MIC of antibiotic (A) in combination with peptidomimetic (B), while MICB(A+B) represents the MIC of peptidomimetic (B) in combination with antibiotic (A). MICA(alone) and MICB(alone) represent the MIC of each compound individually. FICI values of ≤0.5 were interpreted as synergy.

P. aeruginosa ATCC 27853 [5] = tested on: P. aeruginosa ATCC 27853
Experimental: as §7

K. pneumoniae ST258 [6] = tested on: K. pneumoniae ST258
Experimental: as §7

K. pneumoniae ST258 [7] = assay: Screening of peptidomimetic-antibiotic combinations (growth / growth inhibition); format: cell-based, Klebsiella pneumoniae; parameters: key to Growth in combination with RIF / Growth in combination with AZM: Growth (+); growth inhibition (–)
Experimental: as §1

[8] = MTS/PMS cell viability assay; format: cell-based, mouse; settings: mouse, NIH 3T3 fibroblasts, 1 h exposure, read-out: Cytotoxicity NIH 3T3 EC50 ± SD
Experimental: as §2, §3, §4, §5, §6
(§8) With top and bottom representing the mean highest and lowest observed values, respectively. The Hill slope represents a factor for the steepness of the linear part of the curve. In order to prevent erroneous calculation, the top and bottom values were constrained to 100 and 0%, respectively. Data were collected from technical triplicates. The selectivity index was calculated as the average effect on cell viability (EC50 values for HepG2 and NIH 3T3 cells) divided by the MIC.

[9] = MTS/PMS cell viability assay; format: cell-based; settings: human, HepG2 hepatocytes, 1 h exposure, read-out: Cytotoxicity HepG2 EC50 ± SD
Experimental: as §2, §3, §4, §5, §6, §8

E. coli ST131 [10] = assay: Potentiation of additional antibiotics (COMPAN1F plates), MIC; format: cell-based, Escherichia coli
Experimental: as §1

K. pneumoniae ST258 [11] = assay: as above; format: cell-based, Klebsiella pneumoniae
Experimental: as §1

[12] = peptidomimetic 0.5 μM + azithromycin 1 μg/mL
[13] = peptidomimetic 0.5 μM + rifampicin 0.5 μg/mL
[14] = MIC of azithromycin combined with the labelled peptidomimetic
[15] = MIC of rifampicin combined with the labelled peptidomimetic

Molecule: C[C@@H](c1ccccc1)N(CCC(N)=O)C(=O)[C@H](CCCCNC(=N)N)NC(=O)CCN(C(=O)[C@H](CCCCN)NC(=O)CCN(C(=O)[C@H](CCCCNC(=N)N)NC(=O)CCN(C(=O)[C@H](CCCCN)NC(=O)CCN(C(=O)[C@H](CCCCNC(=N)N)NC(=O)CCN(C(=O)[C@H](CCCCN)NC(=O)CNCCN)[C@@H](C)c1ccccc1)[C@@H](C)c1ccccc1)[C@@H](C)c1ccccc1)[C@@H](C)c1ccccc1)[C@@H](C)c1ccccc1 [Peptidomimetic 25, NDab-Lys-βNspe-hArg-βNspe)3-NH2]
- MIC E. coli ST131 (E. coli ST131 [1]): 2 µM
- MIC P. aeruginosa ATCC 27853 (P. aeruginosa ATCC 27853 [2]): 8 µM
- EC50 (NIH 3T3 and HepG2 cells): 80 to 170 µM
- Growth in combination with AZM (MDR E. coli ST131; [12]): –
- Growth in combination with RIF (MDR E. coli ST131; [13]): –
- Selectivity Index (SI) K. pneumoniae ST258 (K. pneumoniae ST258 [3]; average of EC50 (HepG2, NIH 3T3) divided by MIC): (16)
- MIC K. pneumoniae ST258 (K. pneumoniae ST258 [3]; peptidomimetic alone): 8 µM
- Antibiotic MIC in combination (AZM) (E. coli ST131 [4]; [14]): 0.5 µg/mL
- Antibiotic MIC in combination (RIF) (E. coli ST131 [4]; [15]): 0.5 µg/mL
- Peptidomimetic MIC alone (E. coli ST131 [4]; checkerboard): 2 µM
- Peptidomimetic MIC in combination (E. coli ST131 [4]; combined with AZM): 0.25 µM
- Peptidomimetic MIC in combination (E. coli ST131 [4]; combined with RIF): 0.25 µM
- Antibiotic MIC in combination (RIF) (P. aeruginosa ATCC 27853 [5]; P. aeruginosa ATCC 27853, MIC of rifampicin combined with the labelled peptidomimetic): 0.06 µg/mL
- Peptidomimetic MIC alone (P. aeruginosa ATCC 27853 [5]; P. aeruginosa ATCC 27853, checkerboard): 8 µM
- Peptidomimetic MIC in combination (P. aeruginosa ATCC 27853 [5]; P. aeruginosa ATCC 27853, combined with AZM): 1 µM
- Peptidomimetic MIC in combination (P. aeruginosa ATCC 27853 [5]; P. aeruginosa ATCC 27853, combined with RIF): 1 µM
- Reduction of the MIC of azithromycin (P. aeruginosa ATCC 27853 [5]; P. aeruginosa, sub-MIC concentrations of peptidomimetic): 32- to 512 fold
- Antibiotic MIC in combination (AZM) (K. pneumoniae ST258 [6]; [14]): 8 µg/mL
- Antibiotic MIC in combination (RIF) (K. pneumoniae ST258 [6]; [15]): 0.06 µg/mL
- Peptidomimetic MIC alone (K. pneumoniae ST258 [6]; checkerboard): 8 µM
- Peptidomimetic MIC in combination (K. pneumoniae ST258 [6]; combined with AZM): 0.5 µM
- Peptidomimetic MIC in combination (K. pneumoniae ST258 [6]; combined with RIF): 1 µM
- Growth in combination with AZM (K. pneumoniae ST258 [7]; [12]): +
- Growth in combination with RIF (K. pneumoniae ST258 [7]; [13]): +
- EC50 at 1 h [8]: 167 ± 5.53 µM
- EC50 at 1 h [9]: 85 ± 3.06 µM

Molecule: Ticarcillin/clavulanic acid [Ticarcillin/clavulanic acid (2:1)]
- MIC of antibiotic in presence of peptidomimetic 1 (E. coli ST131 [10]; + 0.5 μM peptidomimetic 1): 16 µg/mL
- MIC of antibiotic in presence of peptidomimetic 15 (E. coli ST131 [10]; + 0.5 μM peptidomimetic 15): 32 µg/mL
- MIC of antibiotic alone (E. coli ST131 [10]; no peptidomimetic): 64 µg/mL
- MIC of antibiotic in presence of peptidomimetic 1 (K. pneumoniae ST258 [11]; + 1 μM peptidomimetic 1): >64 µg/mL
- MIC of antibiotic in presence of peptidomimetic 15 (K. pneumoniae ST258 [11]; + 1 μM peptidomimetic 15): >64 µg/mL
- MIC of antibiotic in presence of peptidomimetic 26 (K. pneumoniae ST258 [11]; + 1 μM peptidomimetic 26): >64 µg/mL
- MIC of antibiotic alone (K. pneumoniae ST258 [11]; no peptidomimetic): >64 µg/mL
